Assay results as given in patent US20070208086A1, “UBIQUINONE ANALOGS AND METHODS OF USE” (THE REGENTS OF THE UNIVERSITY OF CALIFORNIA, priority 2006, published 2007).

Assay: Determination of reduction potentials by cyclic voltametry (CV)
Assay type: physicochemical
Text: In one embodiment, the compound of the invention has a reduction potential, which is different from the reduction potential of CoQ10. In an exemplary embodiment, the reduction potential found for the compound of the invention is lower than the reduction potential of CoQ10. Methods for the determination of reduction potentials are known in the art and are, for example, described in A. J. Fry, Synthetic Organic Electrochemistry, 2nd Ed., Wiley-Interscience, New York, 1989. For example the reduction potential is measured against the Ag/AgNO3 redox system. “Reduction potential” can mean “first reduction potential”, in which a first electron is transferred (e.g., Q→Q ? ), or “second reduction potential”, in which a second electron is transferred (e.g., Q ? →Q^−2). Typically, “reduction potential” for the purpose of comparing compounds, means the first reduction potential. However, for certain compounds a distinction between a first and a second reduction potential cannot be measured. In these cases, the “overall” (measurable) reduction potential is used to compare reduction potential values of compounds. The reduction potentials for selected ubiquinone analogs of the invention are summarized in Example 12, below. For example, while the first reduction potential of CoQ10 in a particular assay is −1.11, the first reduction potential found for compound 9 is −1.22, which is lower than −1.11. In another example, the overall reduction potential for compound 7 is −1.44, which is lower than −1.11 for CoQ10. In an exemplary embodiment, the ratio (a/b) between the reduction potential of a compound of the invention (a) and the reduction potential of CoQ10 to (b) in a particular assay is between about 1 and about 50. In another exemplary embodiment, the ratio is between about 1 and about 40, preferably between about 1 and about 30, more preferably between about 1 and about 20, and even more preferably between about 1 and about 10. In yet another exemplary embodiment, the ratio is between about 1 and about 8 preferably between about 1 and about 6, more preferably between about 1 and about 4, and most preferably between about 1 and about 2.
The redox chemistry of a variety of purified ubiquinones of the invention was examined using cyclic voltametry (CV). Methods for the determination of reduction potentials are known in the art and are, for example, described in A. J. Fry, Synthetic Organic Electrochemistry, 2nd Ed., Wiley-Interscience, New York, 1989.
The resulting redox data (including those for CoQ10) are listed in the order of increasing first-wave potentials (Epc1) in Table 1, below. The abbreviation Epc1 and Epc2 are used to represent the values of the first and second cathodic peak potentials, respectively. The peak potentials correspond to the first and second reduction wave minima in the recorded CV graphs (see e.g., FIG. 1).
The value of the second peak potential is, typically, an approximation. Chemical side reactions coupled to the transient species generated in the first reduction may contribute to the shape of the wave, and thus the peak potential. […] Representative first and second reduction waves for analogs 1 and 23, as well as for CoQ10, are illustrated in FIG. 1, which represents an expanded portion of the recorded CV graph.

Q/Q*− (Epc1), first wave potential (Epc vs. Ag/AgNO3 in DMF, first cathodic peak potential): −1.11 V
Q*−/Q−2 (Epc2), second wave potential (Epc vs. Ag/AgNO3 in DMF, second cathodic peak potential, typically an approximation): −1.42 V
first reduction potential (FIG. 1 reduction waves): -1.11 V
second reduction potential (FIG. 1 reduction waves): -1.42 V
first reduction potential (in a particular assay): −1.11
SMILES: COC1=C(OC)C(=O)C(C/C=C(\C)CC/C=C(\C)CC/C=C(\C)CC/C=C(\C)CC/C=C(\C)CC/C=C(\C)CC/C=C(\C)CC/C=C(\C)CC/C=C(\C)CCC=C(C)C)=C(C)C1=O [CoQ10]
